According to PMC7809101, “Fetal bovine serum albumin inhibits antimicrobial peptide activity and binds drug only in complex with α1-antitrypsin” (Scientific Reports, 2021):

Tests used:
bovine serum albumin = test system: bovine serum albumin; parameters: method as in PMID 24456893, PMID 18779351, PMID 17569519; conditions: ref [12],[16],[17]; cited from earlier work
Protocol: (§1) Albumin is the most abundant protein in human serum (HSA, 45 mg/ml), followed in descending order by α1-antitrypsin (A1AT, 3.5 mg/ml), transferrin (2.5 mg/ml), α2-macroglobulin (2.5 mg/ml), haptoglobulin (1.8 mg/ml), low-density lipoprotein (LDL, 1.2 mg/ml), α1-acid glycoprotein (AGP, 0.8 mg/ml) and high-density lipoprotein (HDL, 0.6 mg/ml)[11]. These proteins are involved in the transportation of fatty acids, cholesterols, toxins and drugs in the blood stream.

human serum albumin = conditions: cited from earlier work
protein A (albumin) = protein A (albumin) (Bos taurus, UniProt P02769); experiment: Fluorescence emission spectrum (blue shift), protein A; format: binding, bovine; parameters: The homogeneities of collected protein A (albumin), protein B (α1-antitrypsin), protein C (serotransferrin) and protein D complex; from tissue; host or cells: fetal bovine serum (70% ammonium sulfate fraction, FPLC Mono Q); conditions: protein A 0.75 μM, PC buffer, 25 °C, 30 min; excitation 285 nm, emission 300–450 nm; reagent up to: sarkosyl 320, TP4-A12I,A15I 120, ibuprofen 24, phenytoin 20 μM
Chain of protein A (albumin) (P02769 25-607): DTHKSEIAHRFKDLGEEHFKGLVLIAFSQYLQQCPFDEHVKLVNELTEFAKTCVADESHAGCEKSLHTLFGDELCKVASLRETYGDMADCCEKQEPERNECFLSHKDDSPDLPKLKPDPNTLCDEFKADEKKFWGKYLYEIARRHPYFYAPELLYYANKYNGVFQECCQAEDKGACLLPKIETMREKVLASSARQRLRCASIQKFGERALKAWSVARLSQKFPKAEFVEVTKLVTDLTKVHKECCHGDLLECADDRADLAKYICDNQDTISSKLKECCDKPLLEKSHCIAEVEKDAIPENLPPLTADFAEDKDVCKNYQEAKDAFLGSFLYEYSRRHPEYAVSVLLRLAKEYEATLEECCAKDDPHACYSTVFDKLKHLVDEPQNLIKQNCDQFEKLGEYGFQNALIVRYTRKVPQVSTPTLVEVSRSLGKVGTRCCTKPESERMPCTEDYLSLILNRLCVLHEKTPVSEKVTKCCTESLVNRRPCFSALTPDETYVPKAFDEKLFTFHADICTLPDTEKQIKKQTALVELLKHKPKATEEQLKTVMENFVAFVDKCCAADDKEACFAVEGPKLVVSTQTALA
Protocol: (§2) The mixtures were excited by 285 nm and its emission spectra were recorded between 300 and 450 nm using a temperature-controlled fluorimeter (FP8500, Jasco, Japan)[13].

[1] = biological target: T1, protein D (albumin and α1-antitrypsin complex) (Bos taurus, UniProt P02769+P34955); experiment: Fluorescence emission spectrum (blue shift), protein D; format: binding, bovine; conditions: protein D 0.75 μM, PC buffer, 25 °C, 30 min; excitation 285 nm, emission 300–450 nm; reagent up to: sarkosyl 320, TP4-A12I,A15I 120, ibuprofen 24, phenytoin 20 μM
T1 construct: The active components were further purified by fast performance liquid chromatography (FPLC) Mono Q and S12 column chromatography from the 70% saturated fraction; from tissue; host or cells: fetal bovine serum (70% ammonium sulfate fraction, FPLC Mono Q and Superose 12)
T1 sequence (P02769 25-607, one chain of several): as the sequence (P02769 25-607) above
Protocol: as §2

[2] = biological target: T2, protein B (α1-antitrypsin) (Bos taurus, UniProt P34955); experiment: Band shift of AMPs by protein B; format: binding, bovine; parameters: The homogeneities of collected protein A (albumin), protein B (α1-antitrypsin), protein C (serotransferrin) and protein D complex; from tissue; host or cells: fetal bovine serum (70% ammonium sulfate fraction, FPLC Mono Q); conditions: AMP 4 μg; protein 10 μg (Suppl. Fig. 3a); PC buffer, room temperature, 30 min; 8% horizontal native PAGE
T2 sequence (P34955 25-416): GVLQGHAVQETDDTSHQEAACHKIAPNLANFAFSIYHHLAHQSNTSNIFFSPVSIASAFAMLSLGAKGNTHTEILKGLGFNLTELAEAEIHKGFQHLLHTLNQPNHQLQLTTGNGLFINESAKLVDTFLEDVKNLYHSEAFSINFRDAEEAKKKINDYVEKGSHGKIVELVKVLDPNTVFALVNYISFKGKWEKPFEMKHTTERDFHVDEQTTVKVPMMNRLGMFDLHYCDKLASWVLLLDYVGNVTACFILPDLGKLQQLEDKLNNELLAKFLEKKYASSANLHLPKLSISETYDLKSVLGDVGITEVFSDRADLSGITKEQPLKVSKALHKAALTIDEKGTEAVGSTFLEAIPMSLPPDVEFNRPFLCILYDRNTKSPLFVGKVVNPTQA
Protocol: (§3) Various AMPs (4 μg each) were incubated with fetal bovine serum (FBS) components at room temperature in 10 μl PC buffer for 30 min and subjected to horizontal native 8% PAGE, pH8.0 or pH8.8, and Coomassie Blue staining.

fetal bovine serum (FBS) = experiment: Band shift of AMPs by fetal bovine serum; format: binding; conditions: 10–40% FBS; AMP 4 μg; PC buffer, room temperature, 30 min; horizontal native 8% PAGE
Protocol: as §3

[3] = test system: Escherichia coli K-12 (MG1655); experiment: Antimicrobial (bactericidal) activity against E. coli, effect of serum or serum proteins; format: cell-based; conditions: 5% (v/v) FBS in PBS, 37 °C; remaining viable cells (cfu)
Protocol: The Gram-negative bacteria Escherichia coli K-12 (MG1655) was cultured and plated in/on Luria–Bertani broth/agar plate (Merck Millipore, Darmstadt, Germany). The Gram-positive Staphylococcus aureus (ATCC 6538P) was cultured and plated in tryptic soy broth/agar (BD, MD, USA). The fungus Candida albicans (ATCC 14,053) was cultured and plated in YM broth/agar (BD, MD, USA). The bacteria were grown overnight, washed, and diluted 1:2000 in phosphate buffered saline (PBS), pH 7.5 or DMEM (Life Biotech, California, USA), pH 7.4. Bacteria (ca. 1 × 10^6 colony-forming units, cfu) were mixed with antimicrobial peptides (AMP) in 100 μl PBS and incubated at 37 °C (for bacteria) and at 30 °C (for fungus). Serial dilutions of each AMP-treated bacteria in PBS/DMEM supplemented with FBS were prepared and plated for the determination of remaining viable cells (expressed as cfu). At least three independent experiments were performed for each assay to determine the average value with standard deviation. MBC was defined as the lowest AMP concentration that kills 99.9% of the original inoculum.

[4] = biological target: T1, protein D (albumin and α1-antitrypsin complex); experiment: Band shift of AMPs by protein D; format: binding, bovine; conditions: AMP 4 μg; protein 10 μg (Suppl. Fig. 3a); PC buffer, room temperature, 30 min; 8% horizontal native PAGE
human serum components = conditions: cited from earlier work
Protocol: as §1

trypsin = experiment: Antitrypsin activity analysis; format: biochemical; conditions: trypsin 2 ng (0.2 μg/ml) pre-incubated 30 min, PC buffer, 37 °C, 15% reduced SDS-PAGE; for inhibition of proteolytic activity of trypsin toward SAAP159: substrate SAAP159 4 μg (0.4 mg/ml); for inhibition of proteolytic activity of trypsin toward TP4: substrate TP4 2 μg (0.2 mg/ml)
Protocol: The inhibitions of trypsin’s proteolytic activity by serum components on peptides TP4 and SAAP159 were determined as follows. Freshly diluted trypsin (2 ng; 0.2 μg/ml) was pre-incubated with various concentrations of serum components in PC buffer for 30 min before the mixture was added to TP4 (2 μg; 0.2 mg/ml) or SAAP159 (4 μg/; 0.4 mg/ml) peptides in 10 μl PC buffer at 37 °C for 30 min. The digested peptide fragments were analyzed by 15% reduced SDS-PAGE and Coomassie Blue staining.

[5] = biological target: biotinylated TP4-A12I,A15I (tilapia); experiment: BLI; Octet RED384; biotinylated TP4-A12I,A15I (10 μM) immobilised on a Streptavidin biosensor; serial dilutions of serum components in PC buffer as analyte; global fit (1:1)

CO/N=C(\C(=O)N[C@@H]1C(=O)N2C(C(=O)O)=C(CSc3nc(=O)c(=O)[nH]n3C)CS[C@H]12)c1csc(N)n1 [ceftriaxone]
bound and inhibited by bovine serum albumin (bovine serum albumin): bound and inhibited
bound and inhibited by human serum albumin (human serum albumin; ref [12],[16],[17]): bound and inhibited

COc1c(N2C[C@@H]3CCCN[C@@H]3C2)c(F)cc2c(=O)c(C(=O)O)cn(C3CC3)c12 [moxifloxacin]
bound and inhibited by bovine serum albumin (bovine serum albumin): bound and inhibited

CCCCCCCCCCCC(=O)N(C)CC(=O)[O-].[Na+] [sarkosyl]
blue shift of fluorescence emission spectrum, protein A (protein A (albumin)): caused blue shifts
blue shift of fluorescence emission spectrum, protein D [1]: caused blue shifts

CC(=O)CC(c1ccccc1)c1c(O)c2ccccc2oc1=O (stereo not drawn) [warfarin]
bound to site I of human albumin (human serum albumin; site I, ref [8]–[10]): More than 90%

Iseganan [reference compound]
binding to protein B (band shift) [2]: not by protein A and protein B
mobility of AMP in band shift assay with FBS (fetal bovine serum (FBS)): retarded
effect of FBS on antimicrobial activity against E. coli [3]: serum-mediated repression
binding to protein D (band shift) [4]: also bound by protein D

Polymyxin B
effect of FBS on antimicrobial activity against E. coli [3]: not

daptomycin
bound to human serum components (human serum components): 90-94%
order of binding to human serum components (human serum components): albumin > > α1-antitrypsin > low-density lipoprotein > high-density lipoprotein > transferrin
bound by human serum albumin (human serum albumin): 90-94%

protein A: bovine serum albumin, free form, purified from fetal bovine serum
inhibition of proteolytic activity of trypsin toward SAAP159 (trypsin): only minimally affected
inhibition of proteolytic activity of trypsin toward TP4 (trypsin): only minimally affected

protein D complex (albumin and α1-antitrypsin) (from UniProt P02769 25-607; P34955 25-416)
Kd [5]: 21.7 nM

protein D: albumin and α1-antitrypsin complex linked by disulfide bond, from fetal bovine serum
inhibition of proteolytic activity of trypsin toward SAAP159 (trypsin): repressed
inhibition of proteolytic activity of trypsin toward TP4 (trypsin): repressed

B1: protein B: bovine α1-antitrypsin, free form, purified from fetal bovine serum (protein)
chain: GVLQGHAVQETDDTSHQEAACHKIAPNLANFAFSIYHHLAHQSNTSNIFFSPVSIASAFAMLSLGAKGNTHTEILKGLGFNLTELAEAEIHKGFQHLLHTLNQPNHQLQLTTGNGLFINESAKLVDTFLEDVKNLYHSEAFSINFRDAEEAKKKINDYVEKGSHGKIVELVKVLDPNTVFALVNYISFKGKWEKPFEMKHTTERDFHVDEQTTVKVPMMNRLGMFDLHYCDKLASWVLLLDYVGNVTACFILPDLGKLQQLEDKLNNELLAKFLEKKYASSANLHLPKLSISETYDLKSVLGDVGITEVFSDRADLSGITKEQPLKVSKALHKAALTIDEKGTEAVGSTFLEAIPMSLPPDVEFNRPFLCILYDRNTKSPLFVGKVVNPTQA
inhibition of proteolytic activity of trypsin toward SAAP159 (trypsin): repressed
inhibition of proteolytic activity of trypsin toward TP4 (trypsin): repressed
